Test results as given in patent US20130267500A1, “5-HT2C RECEPTOR AGONISTS IN THE TREATMENT OF DISORDERS AMELIORATED BY REDUCTION OF NORE[…]” (Arena Pharmaceuticals, Inc., priority 2010, published 2013).

How the values were obtained:
[1] = 56-day placebo-controlled study: safety (adverse events, ECG, BDI-II); type: in vivo, human
Description: (§1) A fifty-six-day, double-blind, randomized, placebo-controlled, parallel-group study was conducted to assess the effects of lorcaserin hydrochloride administration to overweight and obese male and female patients. The study was completed according to the guidelines of Good Clinical Practice and was conducted in full compliance with the World Medical Association Declaration of Helsinki and its most recent amendments.
(§2) Fifty-seven overweight or obese adult male and female subjects aged 18 to 65 years inclusive were randomized to one of two treatment groups: placebo or lorcaserin hydrochloride (10 mg) twice-a-day (BID) for 56 days. The majority of subjects were female (68.4%) and Caucasian (63.2%). […] Patients were required to participate in the Arena Healthy Lifestyle Program®, designed specifically for this study, which included a 600 kcal deficit diet and 30 minutes of moderate exercise per day.
(§3) Each subject underwent screening procedures within 28 days or sooner, prior to dosing on Day 1, over 3 screening visits (Days −28, −14, and −7). This was followed by an initial inpatient period of 4 days, a 3-day outpatient period, a second 4-day inpatient period, a second outpatient period over 45 days which included 7 visits, and a final 3-day inpatient period. Fifty-three subjects completed the study.
(§4) Lorcaserin formulation is composed of white tablets containing lorcaserin (active) and excipients (silicified microcrystalline cellulose NF, hydroxypropyl cellulose NF, croscarmellose sodium NF, magnesium stearate NF and Opadry® II white). The placebo is composed of white tablets containing excipients.
(§5) All enrolled patients received two oral doses per day (one dose in the morning prior to breakfast and one dose in the evening prior to dinner) of study medication (lorcaserin or placebo) for 56 days. Dosing was performed in a double-blind manner so that neither the patient nor the Investigator knew which treatment had been assigned. Patients were told to take the study medication each morning and evening approximately 60 minutes before breakfast and dinner and were encouraged to take the study medication with an adequate amount of water (8 oz or 240 mL). Patients were asked not to crush, break, chew, or dissolve the tablets.
A 12-lead ECG was performed at screening (baseline), and during the exit visit (Day 57). […] Individual subjects experienced abnormalities at all time points including baseline. […] None of the abnormalities were clinically significant.
Serial assessments of depression were performed during the study at Days −2, +6 and +55 (Beck Depression Inventory-II (BDI-II)).

norepinephrine = assay: 56-day placebo-controlled study: 24 h urine norepinephrine; type: in vivo, human; conditions: 10 mg BID
Description: as §1
(§6) Fifty-seven overweight or obese adult male and female subjects aged 18 to 65 years inclusive were randomized to one of two treatment groups: placebo or lorcaserin hydrochloride (10 mg) twice-a-day (BID) for 56 days. The majority of subjects were female (68.4%) and Caucasian (63.2%). […]
(§7) The analyses of all efficacy variables used the Modified Intent-to-Treat Population (MITT) population. Patient data were analyzed according to the treatment assigned at randomization, regardless of the treatment received during the course of the trial. […] Compliance was assessed by the number of remaining tablets. […]
(§8) Mean concentrations and mean change from baseline in 24 h urine epinephrine and norepinephrine at Day 7 and Day 56 were assessed. […] Epinephrine was below the limit of quantitation in 44 of 55 available patient samples at Day 7 and 33 of 52 available samples at Day 56. […]

[2] = 56-day placebo-controlled study of lorcaserin hydrochloride: body weight; type: in vivo, human; conditions: for Bodyweight, Mean: lorcaserin hydrochloride 10 mg BID oral
Description: as §1, §2, §3, §4, §5
Patients were required to fast for 10 hours prior to each study visit that requires a blood sample for clinical laboratory tests. Participants were weighed (in duplicate) at each study visit wearing a hospital gown. Efforts were made to schedule study visits prior to 10:00 a.m. to capture the fasted body weight and to reduce the variability in body weight normally observed throughout the day. Weights were measured in kilograms (kg).
The analyses of all efficacy variables used the Modified Intent-to-Treat Population (MITT) population. Patient data were analyzed according to the treatment assigned at randomization, regardless of the treatment received during the course of the trial. Inclusion was dependent on the presence of a baseline measurement, consumption of at least one study dose, and a post-randomization measurement. Patients were instructed to bring their unused study drug with them to each study visit. Compliance was assessed by the number of remaining tablets. Change from baseline or percent change from baseline is defined as the change from Day 1 (randomization) measurement. If the Day 1 measurement was not available, the last non-missing pre-randomization measurement was used as the baseline value, otherwise baseline was considered missing. […]

epinephrine = assay: 56-day placebo-controlled study: 24 h urine epinephrine; type: in vivo, human; conditions: after 7 or 56 days of treatment; small number of evaluable samples
Description: as §1, §6, §7, §8

[3] = cited from earlier work
5-HT2A receptors = 5-HT2A receptors (Homo sapiens, UniProt P28223); conditions: cited from earlier work
human 5-HT2C receptors = molecular target: T1, human 5-HT2C receptors (Homo sapiens, UniProt P28335); conditions: cited from earlier work
T1 sequence (P28335 33-458): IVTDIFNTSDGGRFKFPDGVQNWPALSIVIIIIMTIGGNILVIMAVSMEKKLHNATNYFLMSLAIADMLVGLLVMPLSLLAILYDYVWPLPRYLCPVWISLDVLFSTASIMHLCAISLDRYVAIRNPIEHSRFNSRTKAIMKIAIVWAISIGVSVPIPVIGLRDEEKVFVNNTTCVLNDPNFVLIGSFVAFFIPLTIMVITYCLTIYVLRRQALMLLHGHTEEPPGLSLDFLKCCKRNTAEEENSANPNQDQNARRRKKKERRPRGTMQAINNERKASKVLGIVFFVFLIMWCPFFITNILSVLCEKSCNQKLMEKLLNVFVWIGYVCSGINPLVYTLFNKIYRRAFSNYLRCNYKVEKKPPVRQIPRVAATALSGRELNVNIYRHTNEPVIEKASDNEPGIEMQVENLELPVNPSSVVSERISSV

5-HT2B receptors = 5-HT2B receptors (Homo sapiens, UniProt P41595); conditions: cited from earlier work
[4] = lorcaserin group, 10 mg BID, 56 days
[5] = phase 3 program, up to two years

Chain of 5-HT2A receptors (P28223 whole entry): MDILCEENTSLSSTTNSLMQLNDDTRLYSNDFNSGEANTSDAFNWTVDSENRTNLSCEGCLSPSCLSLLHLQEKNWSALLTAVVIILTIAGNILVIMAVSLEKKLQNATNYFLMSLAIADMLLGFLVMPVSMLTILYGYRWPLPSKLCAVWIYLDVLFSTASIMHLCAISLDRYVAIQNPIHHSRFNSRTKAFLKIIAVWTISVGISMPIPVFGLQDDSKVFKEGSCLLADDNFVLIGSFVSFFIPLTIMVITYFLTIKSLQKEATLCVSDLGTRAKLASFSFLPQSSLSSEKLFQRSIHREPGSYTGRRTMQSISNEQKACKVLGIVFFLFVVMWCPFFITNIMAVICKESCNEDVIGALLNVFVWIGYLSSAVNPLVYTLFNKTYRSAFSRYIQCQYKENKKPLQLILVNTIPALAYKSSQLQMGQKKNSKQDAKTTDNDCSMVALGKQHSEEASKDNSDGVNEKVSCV
Chain of 5-HT2B receptors (P41595 whole entry): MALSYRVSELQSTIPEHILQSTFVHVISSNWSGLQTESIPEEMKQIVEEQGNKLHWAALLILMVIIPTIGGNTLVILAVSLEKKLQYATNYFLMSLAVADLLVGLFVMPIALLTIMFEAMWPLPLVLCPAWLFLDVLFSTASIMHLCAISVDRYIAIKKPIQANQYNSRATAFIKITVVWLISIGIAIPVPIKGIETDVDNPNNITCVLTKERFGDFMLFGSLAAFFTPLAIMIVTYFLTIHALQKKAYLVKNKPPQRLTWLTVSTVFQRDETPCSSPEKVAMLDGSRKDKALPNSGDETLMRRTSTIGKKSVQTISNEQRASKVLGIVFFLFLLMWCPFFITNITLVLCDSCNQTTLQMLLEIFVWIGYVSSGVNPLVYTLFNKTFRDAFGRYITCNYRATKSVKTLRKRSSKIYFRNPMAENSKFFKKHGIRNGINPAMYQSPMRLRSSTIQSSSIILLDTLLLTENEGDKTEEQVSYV

C[C@H]1CNCCc2ccc(Cl)cc21 [Lorcaserin, (R)-8-Chloro-1-methyl-2,3,4,5-tetrahydro-1H-3-benzazepine]
deaths or serious adverse events ([1]; 10 mg BID, 56 days): No deaths or serious adverse events occurred | early terminations due to AEs ([1]; 10 mg BID, 56 days): no early terminations due to AEs | incidence of depression related adverse events ([1]; 10 mg BID, 56 days): did not increase | tolerability ([1]; 10 mg BID, 56 days): generally well tolerated | Beck Depression Inventory-II (BDI-II), difference between lorcaserin and placebo groups ([1]; Days -2, +6 and +55): No meaningful differences | Headache, subjects with at least 1 event ([1]; lorcaserin group (29 randomized), 10 mg BID, 56 days): 11 subjects | Dizziness, subjects reporting [1, 4]: 3 subjects | Headache, rate of subjects with at least 1 event [1, 4]: 37.9% | 12-lead ECG effects ([1]; screening vs exit visit (Day 57)): no apparent treatment-related effects on ECG | 24 h norepinephrine excretion in urine (norepinephrine; after 7 days (p<0.0001)): significant decrease | 24 h norepinephrine excretion in urine (norepinephrine; after 56 days (p<0.001)): significant decrease | Bodyweight, Mean ([2]; Day 1 (baseline), overweight/obese patients): 96.59 kg | Bodyweight, Mean ([2]; Day 6): 96.67 kg | Bodyweight, Mean ([2]; Day 55): 93.84 kg | weight loss ([2]; at 6 days, 10 mg BID): No significant weight loss | weight loss as compared to placebo ([2]; at 55 days, 10 mg BID): Significantly greater weight loss | 24 h epinephrine excretion (epinephrine): no change | excess body weight lost (normal BMI of 25) ([3]; first phase 3 trial): about one-third | patients achieving at least 5% weight loss [3, 5]: About two-thirds | patients achieving at least 10% weight loss [3, 5]: over one-third | average weight lost, of their weight ([3]; phase 3 program): about 8% | depression or suicidal ideation ([3]; phase 3 program): no signal | heart rate and blood pressure ([3]; phase 3 program): went down | risk of cardiac valvulopathy ([3]; phase 3 program): did not increase the risk | average weight loss, top quartile of patients ([3]; second phase 3 trial): 35 pounds | average weight loss, top quartile of patients, of body weight ([3]; second phase 3 trial): 16%

CN(C)[C@@H]1Cc2ccccc2[C@@H](c2ccccc2)C1 [(1R,3S)-(−)-trans-1-phenyl-3-dimethylamino-1,2,3,4-tetrahydronaphthalene]
activity at 5-HT2A receptors (5-HT2A receptors): antagonist | activity at human 5-HT2C receptors (human 5-HT2C receptors): agonist | activity at 5-HT2B receptors (5-HT2B receptors): antagonist
